Data taken from patent US20250296959A1, “B7-H3 TARGETING PEPTIDES AND CONSTRUCTS THEREOF” (Mariana Oncology Inc., priority 2024, published 2025).
pKd: −log10 of the molar value. Starred links: 1 amine or outer side, 2 acyl side, 3 side chain; linkers in the order of their positions; H or OH if unused. Positions of bridges follow the written chain, without caps; N, C: chain ends. Non-standard residues stand in square brackets, D forms with d. Residues, ends and D or L forms follow the SMILES beside them. Groups on a side chain read outwards from the residue. *: point of attachment. Ala(1-CH2CO2H-4-piperidyl) = N[C@@H](CC1CCN(CC(=O)O)CC1)C(=O)O; Ala(piperidin-4-yl) = O=C([C@H](CC1CCN([*:3])CC1)N[*:1])[*:2]; DOTA = O=C(O)CN1CCN(CC(=O)O)CCN(CC(=O)*)CCN(CC(=O)O)CC1; Trp(5-F) = N[C@@H](Cc1c[nH]c2ccc(F)cc12)C(=O)O; X1 = C[C@@H](c1ccccc1)[C@H](N[*:1])C(=O)[*:2]; X17 = CN1CCC(C[C@H](N[*:1])C(=O)[*:2])CC1; Lys(Me3) = C[N+](C)(C)CCCC[C@H](N)C(=O)O; Ala(4-THP) = N[C@@H](CC1CCOCC1)C(=O)O; Val(3-OH) = CC(C)(O)[C@H](N)C(=O)O; Cya = N[C@@H](CS(=O)(=O)O)C(=O)O; Aad = N[C@@H](CCCC(=O)O)C(=O)O; PEG4 = NCCOCCOCCOCCOCCC(=O)O; Tle = CC(C)(C)[C@H](N)C(=O)O; hLeu = CC(C)CC[C@H](N)C(=O)O

Target: T1, human 4lg B7-H3 (Homo sapiens, UniProt Q5ZPR3)
T1 sequence (Q5ZPR3 29-534): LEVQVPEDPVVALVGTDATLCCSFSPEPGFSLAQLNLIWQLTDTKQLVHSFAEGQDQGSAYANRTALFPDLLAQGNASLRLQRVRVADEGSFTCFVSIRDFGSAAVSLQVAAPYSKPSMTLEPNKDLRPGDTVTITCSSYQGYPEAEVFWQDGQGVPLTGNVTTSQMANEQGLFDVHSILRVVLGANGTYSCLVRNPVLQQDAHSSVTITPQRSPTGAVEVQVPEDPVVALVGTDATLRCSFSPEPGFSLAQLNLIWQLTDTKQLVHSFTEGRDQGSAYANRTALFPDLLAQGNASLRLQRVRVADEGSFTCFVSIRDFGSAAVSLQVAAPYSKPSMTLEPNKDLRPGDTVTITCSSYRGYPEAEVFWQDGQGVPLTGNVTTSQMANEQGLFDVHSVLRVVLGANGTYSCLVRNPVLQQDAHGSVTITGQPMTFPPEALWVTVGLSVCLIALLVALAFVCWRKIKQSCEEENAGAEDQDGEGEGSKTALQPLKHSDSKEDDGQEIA
Experiment: Affinity determination by surface plasmon resonance (SPR) to 4Ig B7-H3
Details: SPR KD—37° C., 4Ig B7-H3; 37° C. flow cell temperature

pKd, > 9.00:
CC(=O)N[C@@H](CCC(C)C)C(=O)N[C@@H](Cc1ccc(O)cc1)C(=O)N[C@H]1CSSC[C@@H](C(=O)N[C@@H](Cc2c[nH]c3ccc(F)cc23)C(=O)N[C@H](C(=O)N[C@H](C(=O)N[C@H](C)C(=O)O)C(C)(C)O)[C@@H](C)c2ccccc2)NC(=O)[C@H](Cc2ccc(O)cc2)NC(=O)[C@H](C(C)C)NC(=O)[C@H](CC(=O)O)NC(=O)[C@H](CC2CCN(C(=O)CCOCCOCCOCCOCCNC(=O)CN3CCN(CC(=O)O)CCN(CC(=O)O)CCN(CC(=O)O)CC3)CC2)NC(=O)[C@H](CC2CCN(C)CC2)NC(=O)CNC(=O)[C@H](C(C)(C)C)NC1=O [compound 520, Ac-hLeu-Y-C-Tbg-G-Pip(Me)Ala-Pip(PEG4-DOTA)Ala-D-V-Y-C-5FW-[(2S, 3S)beta-Me-Phe]-hydroxyVal-dAla-COOH] (Ac-[hLeu]YC[Tle]G[X17][Ala(piperidin-4-yl)]([PEG4-DOTA])DVYC[Trp(5-F)][X1][Val(3-OH)][dA]-OH; disulfide 3-11)
CC(=O)N[C@@H](CCC(C)C)C(=O)N[C@@H](Cc1ccc(O)cc1)C(=O)N[C@H]1CSSC[C@@H](C(=O)N[C@@H](Cc2c[nH]c3ccc(F)cc23)C(=O)N[C@H](C(=O)N[C@H](C(=O)N[C@H](C)C(=O)O)C(C)(C)O)[C@@H](C)c2ccccc2)NC(=O)[C@H](Cc2ccc(O)cc2)NC(=O)[C@H](C(C)C)NC(=O)[C@H](CC(=O)O)NC(=O)[C@H](CC2CCN(C(=O)CCOCCOCCOCCOCCNC(=O)CN3CCN(CC(=O)O)CCN(CC(=O)O)CCN(CC(=O)O)CC3)CC2)NC(=O)[C@H](CCCC[N+](C)(C)C)NC(=O)CNC(=O)[C@H](C(C)(C)C)NC1=O [compound 522, Ac-hLeu-Y-C-Tbg-G-Lys(Me)3-Pip(PEG4-DOTA)Ala-D-V-Y-C-5FW-[(2S, 3S)beta-Me-Phe]-hydroxyVal-dAla-COOH] (Ac-[hLeu]YC[Tle]G[Lys(Me3)][Ala(piperidin-4-yl)]([PEG4-DOTA])DVYC[Trp(5-F)][X1][Val(3-OH)][dA]-OH; disulfide 3-11)
CC(=O)N[C@@H](CCC(C)C)C(=O)N[C@@H](Cc1ccc(O)cc1)C(=O)N[C@H]1CSSC[C@@H](C(=O)N[C@@H](Cc2c[nH]c3ccc(F)cc23)C(=O)N[C@H](C(=O)N[C@H](C(=O)N[C@H](CCCCNC(=O)CN2CCN(CC(=O)O)CCN(CC(=O)O)CCN(CC(=O)O)CC2)C(=O)O)C(C)(C)O)[C@@H](C)c2ccccc2)NC(=O)[C@H](Cc2ccc(O)cc2)NC(=O)[C@H](C(C)C)NC(=O)[C@H](CS(=O)(=O)O)NC(=O)[C@H](CC2CCOCC2)NC(=O)[C@H](CC2CCNCC2)NC(=O)CNC(=O)[C@H](C(C)(C)C)NC1=O [compound 524, Ac-hLeu-Y-C-Tbg-G-PipAla-ThpA-CysAcid-V-Y-C-5FW-[(2S, 3S)beta-Me-Phe]-hydroxyVal-dLys(DOTA)-COOH] (Ac-[hLeu]YC[Tle]G[Ala(piperidin-4-yl)][Ala(4-THP)][Cya]VYC[Trp(5-F)][X1][Val(3-OH)][dK](DOTA)-OH; disulfide 3-11)
CC(=O)N[C@@H](CCC(C)C)C(=O)N[C@@H](Cc1ccc(O)cc1)C(=O)N[C@H]1CSSC[C@@H](C(=O)N[C@@H](Cc2c[nH]c3ccc(F)cc23)C(=O)N[C@H](C(=O)N[C@H](C(=O)N[C@H](CCCCNC(=O)[C@H](CCCC(=O)O)NC(=O)CN2CCN(CC(=O)O)CCN(CC(=O)O)CCN(CC(=O)O)CC2)C(=O)O)C(C)(C)O)[C@@H](C)c2ccccc2)NC(=O)[C@H](Cc2ccc(O)cc2)NC(=O)[C@H](C(C)C)NC(=O)[C@H](CC(=O)O)NC(=O)[C@H](CC2CCOCC2)NC(=O)[C@H](CC2CCN(CC(=O)O)CC2)NC(=O)CNC(=O)[C@H](C(C)(C)C)NC1=O [compound 525, Ac-hLeu-Y-C-Tbg-G-Pip(CH2COOH)Ala-ThpA-D-V-Y-C-5FW-[(2S, 3S)beta-Me-Phe]-hydroxyVal-dLys(hGlu-DOTA)-COOH] (Ac-[hLeu]YC[Tle]G[Ala(1-CH2CO2H-4-piperidyl)][Ala(4-THP)]DVYC[Trp(5-F)][X1][Val(3-OH)][dK]([Aad-DOTA])-OH; disulfide 3-11)
